Source: US20260217683A1, “PYRIDAZINONE HETEROCYCLIC COMPOUND MYOSIN II INHIBITOR AND USE THEREOF” (Xizang Haisco Pharmaceutical Co., Ltd., priority 2023, published 2026)
Like-named read-outs stand apart in the source and are kept apart here.

Test system: rabbit skeletal muscle myosin
Experiment: Inhibition of hydrolysis of ATP by rabbit skeletal muscle myosin
Format: biochemical
Method: The purpose of this test was to evaluate the ability of compounds to inhibit the hydrolysis of ATP by rabbit skeletal muscle myosin. The determination method was as follows:
• Preformed F-actin filaments (#AKF99-B, Cytoskeleton) were diluted to 1 mg/mL with Reaction buffer (25 mM Tris-HCL, pH 7.5+35 mM KCl+0.1 mM EGTA+1 mM MgCl2); • Rabbit myosin (#MYO2-A, Cytoskeleton) was diluted to 0.1 mg/mL with Resuspension buffer (15 mM Tris-HCL, PH7.5+0.2 M KCl+1 mM MgCl2); • ATP (#BSA04-001, Cytoskeleton) was diluted to 3 mM working solution with 15 mM Tris-HCL (PH=7.5);
• adding 13 μL reaction buffer+12 μL F-actin to actin control wells; • adding 10 μL reaction buffer+12 μL F-actin+3 μL myosin II to positive control wells; • adding 10 μL of compound working solution+12 μL of F-actin+3 μL of myosin II to the compound wells; • adding 5 μL of ATP working solution to all test wells to start the reaction, and simultaneously adding a sample to the Pi standard wells according to the instruction (#BK054, Cytoskeleton); • gently mixing and accurately incubating at 37° C. for 60 min; • adding 70 μL of CytoPhos Reagent (#BK054, Cytoskeleton) to each well and incubating for 10 min to stop the reaction.
• the OD value of each well was detected at 650 nm using the endpoint method. The standard curve was fitted according to Pi concentration and OD value, and the Pi concentration of each test well was obtained. Inhibition (%)=(Pi positive control well-Pi test well)/Pi positive control well*100%. The Inhibition %-[…] curve was fitted with Graphpad Prism 8 software, and IC50 was calculated.

[1] = inhibition of hydrolysis of ATP, class symbols, read-out: Rabbit skeletal muscle myosin (IC50)
[2] = read-out: IC50 for inhibition of hydrolysis of ATP by rabbit skeletal muscle myosin

SMILES | IC50 [1] [nM] | IC50 [2] [nM]
O=c1ccc(-c2cnc(C3CC3)nc2)nn1Cc1ccc2c(c1)CCC2 [Compound 78] | < 2500 | 
O=c1ccc(-c2cnc(OC3CC(F)(F)C3)nc2)nn1Cc1ccc2c(c1)CC2 [Compound 83] | < 2500 | 
O=c1ccc(-c2cnc(OC3COC3)nc2)nn1Cc1ccc2c(c1)CC2 [Compound 94] | < 2500 | 200
O=c1ccc(-c2cnc(Oc3cncc(F)c3)nc2)nn1Cc1ccc2c(c1)CC2 [Compound 101] | < 2500 | 100
O=c1ccc(-c2cnc(OCC3CC3)nc2)nn1Cc1ccc2c(c1)CC2 [Compound 86] | < 2500 | 200
O=c1ccc(-c2cnc(OCC(F)(F)F)nc2)nn1Cc1ccc2c(c1)CC=C2 [Compound 138] | < 2500 | 200
O=c1ccc(-c2cnc(OCC(F)F)nc2)nn1Cc1ccc2c(c1)C(F)(F)CC2 [Compound 100] | < 2500 | 100
O=C1CCc2c(Cl)cc(Cn3nc(-c4cnc(Oc5cncc(Cl)c5)nc4)ccc3=O)cc21 [Compound 175] | < 2500 | 530
O=C1CCc2c(Cl)cc(Cn3nc(-c4cnc(Oc5cccc(F)n5)nc4)ccc3=O)cc21 [Compound 174] | < 2500 | 
O=c1ccc(-c2cnc(OCCC(F)F)nc2)nn1Cc1ccc2c(c1)CCC2 [Compound 76] | < 2500 | 
O=c1ccc(-c2cnc(OCC3CC3(F)F)nc2)nn1Cc1ccc2c(c1)CC2 (stereo not shown) [Compound 87] | < 2500 | 300
O=c1ccc(-c2cnc(OCCF)nc2)nn1Cc1ccc2c(c1)CC2 [Compound 66] | < 2500 | 
O=c1ccc(-c2cnc(O[C@@H]3CCOC3)nc2)nn1Cc1ccc2c(c1)CC2 [Compound 107] | < 2500 | 200
O=c1ccc(-c2cnc(OCCCCl)nc2)nn1Cc1ccc2c(c1)CCC2 [Compound 77] | < 2500 | 
O=C1CCc2c(Cl)cc(Cn3nc(-c4cnc(Oc5cncc(F)c5)nc4)ccc3=O)cc21 [Compound 173] | < 2500 | 530
CC(c1ccc2c(c1)CC2)n1nc(-c2cnc(OCC(F)(F)F)nc2)ccc1=O (stereo not shown) [Compound 61] | 2500 to 20000 | 
CC(c1ccc2c(c1)CC2)n1nc(-c2cnc(OCC(F)(F)F)nc2)ccc1=O (single isomer, unassigned) [Compound 64] | < 2500 | 
O=c1ccc(-c2cnc(OCCC(F)F)nc2)nn1Cc1ccc2c(c1)CC2 [Compound 68] | < 2500 | 100
O=c1ccc(-c2cnc(OC3CC(F)(F)C3)nc2)nn1Cc1ccc2c(c1)CCC2 [Compound 85] | 2500 to 20000 | 
O=c1ccc(-c2cnc(OC3CC3)nc2)nn1Cc1ccc2c(c1)CC2 [Compound 82] | < 2500 | 200

Continued, values first:

IC50 [1] [nM] | IC50 [2] [nM] | SMILES
< 2500 |  | O=c1ccc(-c2cnc(OCCC(F)(F)F)nc2)nn1Cc1ccc2c(c1)CC2 [Compound 65]
2500 to 20000 |  | O=C1CCCc2ccc(Cn3nc(-c4cnc(OCC(F)(F)F)nc4)ccc3=O)cc21 [Compound 168]
2500 to 20000 |  | O=C1CCc2ccc(Cn3nc(-c4cnc(Oc5cccc(C(F)(F)F)n5)nc4)ccc3=O)cc21 [Compound 144]
2500 to 20000 |  | O=c1ccc(-c2cnc(OCC(F)(F)F)nc2)nn1Cc1ccc2c(c1)CCC2(F)F [Compound 79]
2500 to 20000 |  | O=c1cc2c(nn1Cc1ccc3c(c1)CC3)-c1cnc(OC3CCOC3)nc1CC2 (stereo not shown) [Compound 122]
< 2500 | 200 | O=c1ccc(-c2cnc(OCC(F)(F)F)nc2)nn1Cc1ccc2c(c1F)CCC2 [Compound 98]
2500 to 20000 |  | O=C1CCc2ccc(Cn3nc(-c4cnc(Oc5ccnc(C(F)(F)F)c5)nc4)ccc3=O)cc21 [Compound 143]
2500 to 20000 |  | O=C1CCc2ccc(Cn3nc4c(cc3=O)CCc3nc(OCC(F)(F)F)ncc3-4)cc21 [Compound 154]
2500 to 20000 |  | O=C1CCc2c1cc(Cn1nc(-c3cnc(OCC(F)(F)F)nc3)ccc1=O)cc2C1CC1 [Compound 177]
< 2500 | 800 | O=c1ccc(-c2cnc(OCC(F)(F)F)nc2)nn1Cc1cc2c(cc1F)CCC2 [Compound 99]
